From US20260263402A1, “SYNERGISTIC COMBINATIONS OF REGULATED NECROSIS INHIBITORS WITH N-ACETYLCYSTEINE” (priority 2022, published 2026)

Experiments:
[1] = test system: SH-SY5Y cells; assay: Cell viability (MTS) of SH-SY5Y cells treated with erastin (ferroptosis), neurotoxicity model; assay type: cell-based, Human; conditions: 10 μM erastin 24 h
Method: (§1) The SH-SY5Y neuronal cells (Human Neuroblastoma Cell line) and HT-22 cells (Mouse Hippocampal Neuronal Cell line) were maintained in standard DMEM with GlutaMAX medium (GIBCO), supplemented with 10% fetal bovine serum (GIBCO), at 37° C. in presence of 5% CO2.
(§2) SH-SY5Y, LLC-PK1, ARPE-19 and HT22 cells were seeded in 96-well plates at a density of 10 000 or 5000 cells per well respectively, following overnight incubation. Cells were treated with 10 μM (SH-SY5Y cells) or 0.5 μM (HT22 cells) of erastin or 2 μM of RSL3 (LLCPK1) or 10 mM of sodium iodate (ARPE-19 cells) for 24 h.
(§3) Erastin and RSL3 was purchased from Selleck Chemical and sodium iodate from Sigma Aldrich. Cell viability was assessed by MTS assay (CellTiter 96@D AQueous Non-Radioactive Cell Proliferation Assay; Promega, Fitchburg, WI, USA) according to the manufacturer's instructions. This assay is based on the reduction of the 3-(4,5-dimethylthiazol-2-yl)-5-(3-carboxymethoxyphenyl)-2-(4-sulfophenyl)-2H-tetrazolium (MTS) by viable cells to form a colored formazan product. After treatment, cells were incubated 3 h at 37° C., 5% CO2 with MTS. The absorbance was measured using a microplate reader at 490 and 630 nm and the percentage of viability was calculated by dividing the absorbance of testing compound by the absorbance of DMSO treated cells (control).
(§4) Cells (HT-22, SHSY-5Y, LLC-PK1 and ARPE 19) were seeded in a 96-well plate in their respective medium overnight. The next day they were treated with NAC or a derivative thereof including NACA or N-acetylcysteine ethyl ester (compound A), with inhibitor compound (compound B) or with a combination of the two compounds. The analysis of the effects of the combination of the association of compound A (NAC or a derivative thereof including NACA and N-acetylcysteine ethyl ester) with another compound B is based on the independence model of Bliss. In this approach, the effect of compound alone (EA or EB) or in combination is expressed as a probability (0≤E≤1). The combined effect of the compounds is defined by:
(§5) wherein EA and EB represent the effects of compound A and compound B respectively, and EAB the combined effect of the combination of A and B (expected effect on histogram). Calculation index CI is calculated as follows: CI=(EA+EB−EA*EB)/EAB wherein CI is synergistic, antagonistic or additive when CI is under, above or equal to 1 respectively [Duarte et al., Current Research in Pharmacology and Drug Discovery, 2022].
Cell death by ferroptosis was induced by erastin [Dixon et al., Cell, 2012, 149(5), 1060-1072] in both cell lines. Erastin is a well described ferroptosis inducer and also a molecular tool to study neuronal pathologies [Lewerenz et al., Front. Neurosci., 2018, 12: 214].

[2] = test system: HT-22 cells; assay: Cell viability (MTS) of HT22 cells treated with erastin (ferroptosis), neurotoxicity model; assay type: cell-based, Mouse; conditions: 0.5 μM erastin 24 h
Method: as §1, §2, §3
Cells (HT-22, SHSY-5Y, LLC-PK1 and ARPE 19) were seeded in a 96-well plate in their respective medium overnight. […] In this approach, the effect of compound alone (EA or EB) or in combination is expressed as a probability (0≤E≤1). […]
as §5, with “2022]. […]” for “2022].”

[3] = test system: LLC-PK1 cells; assay: Cell viability (MTS) of LLC-PK1 cells treated with RSL3; assay type: cell-based, Pig; conditions: 2 μM RSL3 24 h
Method: The LLC-PK1 cells (Pig Kidney Epithelial cells) were cultured in DMEM/F12(GIBCO), supplemented with 10% fetal bovine serum (GIBCO), at 37° C. in presence of 5% CO2.
as §2, §3
Cells (HT-22, SHSY-5Y, LLC-PK1 and ARPE 19) were seeded in a 96-well plate in their respective medium overnight. The next day they were treated with NAC or a derivative thereof including NACA or N-acetylcysteine ethyl ester (compound A), with inhibitor compound (compound B) or with a combination of the two compounds. […] In this approach, the effect of compound alone (EA or EB) or in combination is expressed as a probability (0≤E≤1). […]
as §5

[4] = test system: mice model of APAP intoxication; assay: In vivo mice model of APAP intoxication, plasma ALT; design: species or system C57Bl/6J male mice; conditions: for ALT plasma level: 8 h after APAP, APAP only ~3000, control ~100 IU/L
Method: Nine-week-old C57Bl/6J male mice were purchased from Janvier Labs (Le Genest St Isle, France). After one week of acclimatization in the animal house, mice were fasted overnight before experimentation. Acetaminophen (APAP) was purchased from Sigma-Aldrich (A70-85-100 g, batch #SCLF8273) and diluted at 20 mg/mL in PBS (preheated at 45° C.). Acetaminophen intoxication was induced in mice by intraperitoneal (i.p.) injection of APAP (400 mg/kg). One hour after APAP injection, mice were treated with inhibitors by intraperitoneal injection. N-acetylcysteine (NAC, A9165-25 g, Sigma-Aldrich, batch #SLCJ1628), the reference treatment for paracetamol intoxication, was diluted at 40 mg/mL in PBS Tween80 5% and injected via intraperitoneal route at a dose of 200 mg/kg. Compound 7 was diluted at 1 mg/ml or 2 mg/ml in PBS Tween80 5% and injected by intraperitoneal injection with increasing concentrations (2.5, 5 or 10 mg/kg) or in combination with NAC (200 mg/kg). There were two groups of control mice: the first one was injected via i.p. route with PBS Tween80 5% (Tween80 5%) and the second group, treated with APAP, was administered one hour after APAP with PBS Tween80 5% (APAP-Tween80 5%) via i.p.. Mice were slaughtered eight hours after APAP injection. Blood and liver were collected.
Serum alanine aminotransferase (ALT) plasma levels were measured according to the International Federation of Clinical Chemistry and Laboratory Medicine primary reference procedures using an Olympus AU2700 Autoanalyser (Olympus Optical).
Results were expressed as means SEM. Mean differences between two experimental groups were assessed using the non-parametric Mann-Whitney U-test. […] Calculated P values are integrated on histograms and graphs. Significance is shown as follows: $ P<0.05, $$ P<0.01, $$$ P<0.001 and $$$ P<0.0001 (comparison between APAP mice and APAP mice treated with NAC and/or compound 7); * P<0.05, ** P<0.01, *** P<0.001 and **** P<0.0001 (comparison between treated groups).
Nine Groups of Mice were Studied: • Tween80 5%, n=15 • APAP (400 mg/kg)+Tween 80 5%, n=31 • APAP (400 mg/kg)+NAC (200 mg/kg), n=15 • APAP (400 mg/kg)+compound 7 (2.5 mg/kg), n=23 • APAP (400 mg/kg)+compound 7 (5 mg/kg), n=21 • APAP (400 mg/kg)+compound 7 (10 mg/kg), n=21 • APAP (400 mg/kg)+compound 7 (2.5 mg/kg)+(NAC 200 mg/kg), n=9 • APAP (400 mg/kg)+compound 7 (5 mg/kg)+NAC (200 mg/kg), n=9 • APAP (400 mg/kg)+compound 7 (10 mg/kg)+NAC (200 mg/kg), n=13

[5] = test system: ARPE-19 cells; assay: Cell viability (MTS) of ARPE-19 cells treated with sodium iodate, model of eye disease; assay type: cell-based, Human; conditions: 10 mM sodium iodate 24 h
Method: The ARPE-19 cells (Human Retinal pigment epithelial cell line) were cultured in standard DMEM/F12 medium (GIBCO), supplemented with 10% fetal bovine serum (GIBCO), at 37° C. in presence of 5% CO2.
as §2, §3, §4, §5
Age-related macular degeneration, or AMD, is characterized by vision loss caused by degeneration of the central cells of the retina, called the macula. […] One model used to study retinal cell death is that of human ARPE-19 cells, a retinal pigment epithelial cell line, in the presence of sodium iodate (NaIO3, a potent oxidizing agent) [Hanus et al. Cell Death Discov. 2016, 2, 16054][Chan et al., J. Biomed. Sci., 2019, 26:40].

[6] = NAC 200 mg/kg with compound 7 10 mg/kg i.p. one hour after APAP 400 mg/kg

Which results are given for `Oc1ccc(-c2cc3ccccc3[nH]2)cc1` [Compound 1]?
effect on viability, combined with NAC (Bliss model) ([1]; FIG. 4, 1 μM cmpd 1 + 100 μM NAC): synergistic effect; effect on viability, compound alone ([1]; FIG. 4, 1 μM cmpd 1 alone): significant effect; effect on viability, combined with N-acetylcysteine ethyl ester (Bliss model) ([1]; FIG. 15, 2.5 μM Compound 1 + 100 μM N-acetylcysteine ethyl ester): synergistic effect; effect on viability, compound alone ([1]; FIG. 15, 2.5 μM Compound 1 alone): significant effect; effect on viability, combined with NAC (Bliss model) ([2]; FIG. 7, 5 μM cmpd 1 + 100 μM NAC): synergistic effect; effect on viability, combined with NAC (Bliss model) ([3]; FIG. 11, 1 μM Compound 1 + 500 μM NAC): synergistic effect

Which “effect on viability, combined with N-acetylcysteine ethyl ester (Bliss model)” value ([1]; FIG. 14, 10 μM Compound 7 + 100 μM N-acetylcysteine ethyl ester) does the source give for `Oc1ccc(-c2cc3cccnc3[nH]2)cc1` [Compound 7, sibiriline] here?
The value was “synergistic effect”.

What about the “effect on viability, compound alone” value ([1]; FIG. 14, 10 μM Compound 7 alone) of the same compound?
Its value is “significant effect”.

And the “effect on viability, combined with NAC (Bliss model)” value (“effect … with NAC (Bliss model)” for short) ([2]; FIG. 5, 25 μM cmpd 7 + 100 μM NAC)?
The value was “synergistic effect”.

What about the “effect … with NAC (Bliss model)” value ([3]; FIG. 10, 2.5 μM Compound 7 + 500 μM NAC) of the same compound?
The value was “synergistic effect”.

What about the “protective effect against APAP toxicity, combination versus NAC alone or compound 7 alone” value ([4]; NAC 200 mg/kg in combination with compound 7 2.5, 5 or 10 mg/kg i.p., FIG. 9a-c) of the same compound?
The value was “better and synergistic protective effect”.

And the “protection against APAP toxicity” value [4, 6]?
Its value is “almost complete protection”.

What about the ALT plasma level [4, 6] of the same compound?
Its ALT plasma level is ~ 200 IU/L.

What about the ALT plasma level ([4]; compound 7 10 mg/kg i.p. one hour after APAP 400 mg/kg i.p.) of the same compound?
The ALT plasma level was ~ 1000 IU/L.

What about the “effect on ALT plasma levels, compound alone” value ([4]; compound 7 2.5, 5 or 10 mg/kg i.p. one hour after APAP 400 mg/kg, maximum effect at 10 mg/kg) of the same compound?
Its value is “reducing ALT plasma levels in a dose-dependent manner”.

How did the “effect … with NAC (Bliss model)” value ([2]; FIG. 6, 50 μM cmpd 37 + 100 μM NAC) turn out when `Oc1ccc(-c2cc3ccc(Cl)nc3[nH]2)cc1` [Compound 37] was run?
Its value is “synergistic effect”.

With `NCCOCCOc1ccc(-c2cc3cccnc3[nH]2)cc1` [Compound 45] as the compound, how does the “effect … with NAC (Bliss model)” value ([5]; FIG. 1, 10 μM cmpd 45 + 100 μM NAC) read?
The value was “synergistic effect”.

What about the “effect on viability, compound alone” value ([5]; FIG. 1, 10 μM cmpd 45 alone) of the same compound?
The value was “significant effect”.

How did the “effect … with NAC (Bliss model)” value ([5]; FIG. 2, 5 μM cmpd 46 + 50 μM NAC) turn out when `COc1cc(O)c2c(c1)OC(O)(c1ccc(OCc3ccccc3)cc1)CC2=O` (stereo not shown) [Compound 46] was run?
Its value is “synergistic effect”.

What about the “effect on viability, compound alone” value ([5]; FIG. 2, 5 μM cmpd 46 alone) of the same compound?
Its value is “significant effect”.

What about the “effect on viability, combined with NACA (Bliss model)” value ([5]; FIG. 13, 10 μM cmpd 46 + 125 μM NACA) of the same compound?
The value was “synergistic effect”.

What about the “effect on viability, compound alone” value ([5]; FIG. 13, 10 μM cmpd 46 alone) of the same compound?
The value was “significant effect”.

And the “effect … with NAC (Bliss model)” value ([1]; FIG. 3, 25 μM cmpd 46 + 100 μM NAC)?
The value was “synergistic effect”.

And the “effect on viability, compound alone” value ([1]; FIG. 3, 25 μM cmpd 46 alone)?
Its value is “significant effect”.

And the “effect on viability, combined with N-acetylcysteine ethyl ester (Bliss model)” value ([1]; FIG. 16, 25 μM Compound 46 + 100 μM N-acetylcysteine ethyl ester)?
Its value is “synergistic effect”.

And the “effect on viability, compound alone” value ([1]; FIG. 16, 25 μM Compound 46 alone)?
The value was “significant effect”.

What about the “effect … with NAC (Bliss model)” value ([3]; FIG. 12, 25 μM Compound 46 + 500 μM NAC) of the same compound?
Its value is “synergistic effect”.

How did the ALT plasma level ([4]; NAC 200 mg/kg i.p. one hour after APAP 400 mg/kg i.p.) turn out when `CC(=O)N[C@@H](CS)C(=O)O` [NAC, N-acetylcysteine] was run?
Its ALT plasma level is ~ 1300 IU/L.
